The source of these data is ChEMBL document CHEMBL1759838, “Synthesis and SAR of acyclic HCV NS3 protease inhibitors with novel P4-benzoxaborole moieties” (Bioorg Med Chem Lett, 2011).

Data set [1] relates to Hepatitis C virus. As to the kind of experiment: Antiviral activity against Hepatitis C virus genotype 1a by cell based assay. Type of data set: functional, organism-based, Hepacivirus hominis. As to conditions: subtype 1a.
The test system of data set [2] is Hepatitis C virus. Kind of data set: Antiviral activity against Hepatitis C virus genotype 1b by cell based assay. Type of data set: functional, organism-based, Hepacivirus hominis.
Data set [3] in a line: Inhibition of Hepatitis C virus genotype 1a NS3/4A protease activity using Ac-DE-Dap(QXL520)-EE-Abu-w-[COO]-ASC(5-FAMsp)-NH2 peptide substrate by FRET assay. Details: species or system Hepatitis C virus subtype 1a.
Data set [4] in a line: Clearance in Sprague-Dawley rat at 1 mg/kg, iv. Type of data set: ADME, organism-based. Also noted: dose 1 mg/kg, route intravenous. As to conditions: in vivo.
The nature of data set [5]: Oral bioavailability in Sprague-Dawley rat at 5 mg/kg, po. Type of data set: ADME, organism-based. As to conditions: in vivo.
A short description of data set [6]: Absorption in Sprague-Dawley rat at 5 mg/kg, po. Type of data set: ADME, organism-based. Also noted: dose 5 mg/kg, route oral. As to conditions: in vivo, read-out: Activity.
Data set [7] is described as follows: Lipophilicity, log D of the compound. Type of data set: physicochemical. As to conditions: octanol/water.
A short description of data set [8]: AUC (0 to infinity) in Sprague-Dawley rat at 5 mg/kg, po. The following applies: plasma. Details: dose 5 mg/kg, route oral, time infinity. The class given is ADME, organism-based.
Data set [9] is described as follows: Inhibition of Hepatitis C virus genotype 1a NS3/4A protease activity using (Ac-DE-D(EDANS)-EE-Abu-w-[COO]-AS-K(DABCYL)-NH2 peptide substrate by FRET assay. Also noted: species or system Hepatitis C virus subtype 1a.

For orientation: EC50 means the midpoint of the concentration-response curve. Read a low EC50 as greater potency. The term IC50 denotes the concentration needed to halve the response being measured. The clearance is a measure of how efficiently the substance is removed, as volume per time. High values mean efficient removal, low ones inefficient removal. Broadly, the bioavailability is the share of a dose that reaches the circulation, judged against a reference dose that is usually intravenous. Low values mean poor availability, high ones good availability. The term logD denotes the decadic logarithm of the distribution of all forms, ionised or not, between an organic phase and buffer at a given pH. The low end stands for a more hydrophilic compound, the high end for a more lipophilic compound. The term AUC(0-inf) denotes total exposure, with the tail of the curve extrapolated.

As for `C=C[C@@H]1C[C@]1(NC(=O)[C@@H]1C[C@@H](Oc2ncc(OC)c3ccc(Cl)cc23)CN1C(=O)[C@@H](NC(=O)Oc1ccc2c(c1)B(O)OC2)C(C)(C)C)C(=O)NS(=O)(=O)C1CC1`, the EC50 turned out to be 170 nM in data set [1] and 23 nM in data set [2]. Besides, the IC50 in data set [3] came out at 1.3 nM.
Turning to `C=C[C@@H]1C[C@]1(NC(=O)[C@@H]1C[C@@H](Oc2ncc(OC)c3ccc(Cl)cc23)CN1C(=O)[C@@H](NC(=O)Nc1ccc2c(c1)B(O)OC2)C(C)(C)C)C(=O)NS(=O)(=O)C1CC1`, the EC50 in [1] came to 160 nM; in data set [2], 24 nM. In data set [4], the clearance is 7.93 mL/min/kg. Besides, the bioavailability in data set [5] was found to be 0.42%. Besides, the Fa in [6] was determined as 0.92%. In [7], this molecule showed a logD of 4.5. In data set [3], this molecule showed an IC50 of 2.2 nM. This molecule displayed an AUC(0-inf) in data set [8] of 41 ng·h/mL.
With `C=C[C@@H]1C[C@]1(NC(=O)[C@@H]1C[C@@H](Oc2ncc(OC)c3ccc(Cl)cc23)CN1C(=O)[C@@H](NC(=O)c1ccc2c(c1)B(O)OC2)C(C)(C)C)C(=O)NS(=O)(=O)C1CC1`, the IC50 in data set [9] was 4.6 nM. In addition, the concentration for a half-maximal effect (EC50) in data set [1] amounted to 290 nM; in data set [2] it was 91 nM.
For `C=C[C@@H]1C[C@]1(NC(=O)[C@@H]1C[C@@H](Oc2ncc(OC)c3ccc(Cl)cc23)CN1C(=O)[C@@H](NC(=O)NCc1ccc2c(c1)B(O)OC2)C(C)(C)C)C(=O)NS(=O)(=O)C1CC1` the same measures were 2 nM, 130 nM and 25 nM.
For `C=C[C@@H]1C[C@]1(NC(=O)[C@@H]1C[C@@H](Oc2ncc(OC)c3ccc(Cl)cc23)CN1C(=O)[C@@H](NC(=O)Nc1cccc2c1B(O)OC2)C(C)(C)C)C(=O)NS(=O)(=O)C1CC1` the same measures were 16 nM, 65 nM and 38 nM.
For `C=C[C@@H]1C[C@]1(NC(=O)[C@@H]1C[C@@H](Oc2ncc(OC)c3ccc(Cl)cc23)CN1C(=O)[C@@H](NC(=O)Nc1cccc2c1COB2O)C(C)(C)C)C(=O)NS(=O)(=O)C1CC1` the same measures were 4 nM, 500 nM and 81 nM.
Turning to `C=C[C@@H]1C[C@]1(NC(=O)[C@@H]1C[C@@H](Oc2ncc(OC)c3ccc(Cl)cc23)CN1C(=O)[C@@H](NC(=O)Nc1cc2c(cc1F)COB2O)C(C)(C)C)C(=O)NS(=O)(=O)C1CC1`, the EC50 came to 31 nM in data set [1] and 4.3 nM in [2]. In [3], the IC50 was found to be 1.7 nM.
`C=C[C@@H]1C[C@]1(NC(=O)[C@@H]1C[C@@H](Oc2ncc(OC)c3ccc(Cl)cc23)CN1C(=O)[C@@H](NC(=O)Nc1cc2c(cc1Cl)COB2O)C(C)(C)C)C(=O)NS(=O)(=O)C1CC1` registered an IC50 in data set [9] of 1.3 nM. Besides, the EC50 came to 47 nM in data set [1] and 34 nM in data set [2].
For `C=C[C@@H]1C[C@]1(NC(=O)[C@@H]1C[C@@H](Oc2ncc(OC)c3ccc(Cl)cc23)CN1C(=O)[C@@H](NC(=O)Nc1ccc2c(c1)B(O)OC2(C)C)C(C)(C)C)C(=O)NS(=O)(=O)C1CC1` the same measures were 26 nM, 280 nM and 130 nM.
Consider `C=C[C@@H]1C[C@]1(NC(=O)[C@@H]1C[C@@H](Oc2ncc(OC)c3ccc(Cl)cc23)CN1C(=O)[C@@H](Nc1ccc2c(c1)B(O)OC2)C(C)(C)C)C(=O)NS(=O)(=O)C1CC1`, for which the IC50 in [9] was 4.5 nM. Further, the EC50 in data set [1] is 110 nM; in [2], 34 nM. Further, the clearance in data set [4] is 48.8 mL/min/kg. Also, the bioavailability in data set [5] came to 4.3%. Besides, the Fa in data set [6] turned out to be 4.9%. Further, in [7], the logD stood at 4. The same molecule yielded an AUC(0-inf) in [8] of 75 ng·h/mL.
Turning to `C=C[C@@H]1C[C@]1(NC(=O)[C@@H]1C[C@@H](OC(=O)N2Cc3cccc(F)c3C2)CN1C(=O)[C@@H](NC(=O)Nc1cc2c(cc1F)COB2O)C(C)(C)C)C(=O)NS(=O)(=O)C1CC1`, the EC50 in data set [1] was 360 nM; in data set [2], 56 nM. In addition, inhibition in data set [3] was half-maximal at 1.1 nM (IC50).
`C=C[C@@H]1C[C@]1(NC(=O)[C@@H]1C[C@@H](Oc2cc(-c3nc(C(C)C)cs3)nc3c(C)c(OC)ccc23)CN1C(=O)[C@@H](NC(=O)Nc1cc2c(cc1F)COB2O)C(C)(C)C)C(=O)NS(=O)(=O)C1CC1` registered an IC50 in data set [9] of 3.1 nM. Moreover, the EC50 in data set [1] is 8.1 nM; in data set [2] it was 8.6 nM.
`C=C[C@@H]1C[C@]1(NC(=O)[C@@H]1C[C@@H](Oc2ncc(OC)c3ccc(Cl)cc23)CN1C(=O)C(Nc1ccc2c(c1)B(O)OC2)C(C)(C)C)C(=O)NS(=O)(=O)C1CC1` (single isomer, unassigned; diastereomer 2): in data set [9], the IC50 amounted to 350 nM.
